This is an account of results in US20220204509A1, “PYRIMIDO FIVE-MEMBERED HETEROCYCLIC COMPOUND AND USE THEREOF AS MUTANT IDH2 INHIBITOR” (EPITAS BIOSCIENCES (SHANGHAI) CO., LTD., priority 2019, published 2022).

In assay [1] the target is T1, IDH2/R140Q (Homo sapiens, UniProt P48735, R140Q).
T1 sequence (P48735 40-452 R140Q): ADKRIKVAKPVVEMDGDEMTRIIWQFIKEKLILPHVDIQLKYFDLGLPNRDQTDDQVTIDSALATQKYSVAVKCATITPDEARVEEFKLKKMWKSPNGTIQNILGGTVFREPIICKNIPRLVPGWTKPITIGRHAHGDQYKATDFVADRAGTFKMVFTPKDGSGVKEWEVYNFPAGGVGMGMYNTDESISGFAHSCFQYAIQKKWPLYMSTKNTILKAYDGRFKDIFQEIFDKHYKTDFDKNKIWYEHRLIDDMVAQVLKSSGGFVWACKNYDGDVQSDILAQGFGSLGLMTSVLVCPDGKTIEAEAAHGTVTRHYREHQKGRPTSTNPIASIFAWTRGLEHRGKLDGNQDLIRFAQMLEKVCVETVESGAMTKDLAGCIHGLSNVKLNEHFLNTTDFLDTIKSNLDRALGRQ
As to the kind of experiment: Inhibition of mutant IDH2 activity at the cell level (extracellular 2-HG, U87MG overexpressing IDH2/R140Q). In kind it is cell-based. As to conditions: U87MG overexpressing IDH2/R140Q; 2-HG in medium after 24 hours of culturing with compound; read-out: IC50. Here is the method:
2-hydroxyglutarate dehydrogenase (2HGDH) can reduce NAD+ to NADH in the presence of 2-HG. The latter can be quantitatively detected by diaphorase and its substrate Resazurin.
The glioma cells U87MG overexpressing IDH2/R140Q mutation were cultured in 1% sodium pyruvate high-sugar MEM, 10% FBS, and placed in a CO2 incubator (37° C., 5% CO2, 95% air) for cultivation.
The cells were digested with trypsin and seeded in a 96-well plate at a density of 1×10^4 with a medium of 200 μL and cultured in a 37° C. incubator overnight. The next day, the test compound was added to a final concentration of 0.1% for DMSO. […] The protein and other components in the medium that may interfere with the results were filtered, and the follow-up method was used to detect the content of 2-HG. 50 uL CellTiter-Glo (purchased from Promega) was added to the 96-well plate with the remaining 100 μL of medium to detect cell survival;
Extracellular 2-HG detecting system:
(1) 50 μL reaction system: reaction buffer (50 mM Tris pH7.5, 100 mM NaCl, 20 mM MgCl2, 0.05% BSA), in which the final concentration of NAD+ was 40 μM, the final concentration of 2HGDH was 20 nM, and the test sample was added to 5 μL of medium; the reaction solution was mixed and centrifuged, and the reaction was carried out for 1 hour at 25° C. in the dark;
Preparation of 2-HG standard curve: a 2-HG stock solution was diluted to 20 μM with reaction buffer, and a 2-fold gradient diluting was performed for a total of 6 points. Afterwards, the above-mentioned 2-HG was measured according to the extracellular 2-HG detecting system, and a standard curve was calculated and drawn.
Calculation of extracellular 2-HG content:
The fluorescence value obtained in the extracellular 2-HG detecting system was calculated using the 2-HG standard curve to calculate the content of 2-HG in the medium, and DMSO was used as a negative control to calculate the compound's inhibition against IDH2/R140Q mutation producing 2-HG activity.

Another assay concerns the target T2, IDH2/WT (Homo sapiens, UniProt P48735).
T2 construct: made in house; host or cells: E. coli
T2 sequence (P48735 40-452): T1 sequence (P48735 40-452 R140Q) with Q101R
The assay can be described thus: Determination of the selectivity of compounds to wild-type IDH2 (IDH2/WT). The assay is classed as biochemical. The settings on record: Inhibitory activity on IDH2/WT; pre-incubated at 25° C. for 16 hours. Here is the method: The compound was incubated with IDH2/WT and NADP, and then the reaction was initiated by adding isocitrate. After a certain time of reaction under linear conditions, lipoamide dehydrogenase and resazurin were added to detect the amount of fluorescent substances. In this experiment, NADP was reduced to NADPH. The latter reduced resazurin to highly fluorescent resorufin under the action of lipoamide dehydrogenase. The production of resorufin was detected to quantify the amount of cofactor NADPH generated after a specific reaction time, so as to calculate the compound's inhibitory effect on IDH2/WT.
Specifically, in a 96-well plate, in a total reaction volume of 50 μL, a mixture of 0.6 nM IDH2/WT, serially diluted inhibitors, and 50 μM NADP in a reaction buffer containing Tris-HCl 20 mM (pH 7.5), 150 mM NaCl, 10 mM MgCl2, 10% Glycerol, 0.03% BSA, and 2.5 mM β-mercaptoethanol, was pre-incubated at 25° C. for 16 hours. Isocitrate was added to 50 μM and the reaction was carried out at 25° C. for 30 minutes. Then 25 μL of a mixed solution (lipoamide dehydrogenase 36 μg/mL, resazurin 30 μM) prepared with the above reaction buffer was added to convert resazurin to resorufin to measure the NADPH produced. After 10 minutes of incubation at 25° C., the fluorescence value was measured by Tecan INFINITE F FLEX under Ex544/Em590. The enzyme activity was measured at 10 concentrations for each compound, and multiple background holes without enzyme and full enzyme activity holes without compound were set up in the reaction. The concentration of dimethyl sulfoxide in the system was less than or equal to 2%. The value of IC50 was obtained by the formula: Y=100/(1+10^((Log IC50−X)*HillSlope)) using XLFit5 software (IDBS Software). In the method, the multi-well plate was purchased from Thermo Fisher Scientific, NADP, α-KG, lipoamide dehydrogenase, and resazurin were purchased from Shenggong Bioengineering Co., Ltd., and IDH2/WT was obtained by purification after E. coli overexpression.

Assay [2] has as its target T1, IDH2/R140Q. The assay can be described thus: Determination of the inhibitory activity of the compounds on IDH2/R140Q (NADPH reduction, resazurin/lipoamide dehydrogenase detection). In kind it is biochemical. Also on record: purchased Abcam ab198153. As to conditions: IDH2/R140Q inhibitory activity; pre-incubated at 25° C. for 16 hours; read-out: IC50. As to the method:
In this example, the inhibitory activity of a compound on IDH2/R140Q was determined by measuring the reduction of the cofactor NADPH. The compound was incubated with IDH2/R140Q and NADPH, and then the reaction was initiated by adding α-KG. After a certain time of reaction under linear conditions, lipoamide dehydrogenase and the corresponding substrate resazurin were added for detection. Lipoamide dehydrogenase terminated the IDH2/R140Q reaction bγ subtracting the available cofactor NADPH. It oxidized NADPH to NADP, and reduced resazurin to highly fluorescent resorufin. The production of resorufin was detected to quantify the amount of cofactor NADPH remaining after a specific reaction time.
Then 25 μL of a stop mixed solution (lipoamide dehydrogenase 36 μg/mL, resazurin 30 μM) prepared with the above reaction buffer was added to convert resazurin to resorufin to measure the remaining NADPH. After 10 minutes of incubation at 25° C., the fluorescence value was measured by Tecan […] […] The enzyme activity was measured at 10 concentrations for each compound, and multiple background holes without enzyme and full enzyme activity holes without compound were set up in the reaction. The concentration of dimethyl sulfoxide in the system was less than or equal to 2%. […] The multi-well plate in this example was purchased from Thermo Fisher Scientific, NADPH, α-KG, lipoamide dehydrogenase, and resazurin were purchased from Shenggong Bioengineering Co., Ltd., and IDH2/R140Q was purchased from Abcam (ab198153).
A general note: Resazurin is reduced to fluorescent resorufin, in cell work by metabolically active cells.

Where a chain is given by its changes, count along the chain named. Bounds are passed on as bounds.

A word on the IC50: it is the midpoint of a concentration-inhibition curve. Regarding `Cc1cc2c(NC3CC3)nc(-c3ccccc3F)nc2[nH]1` [Compound 28, N-cyclopropyl-2-(2-fluorophenyl)-6-methyl-7H-pyrrolo[2,3-d]pyrimidin-4-amine], the IC50 at IDH2/R140Q [1] is < 100 nM; against IDH2/WT, > 5000 nM; on IDH2/R140Q [2], 100 to 1000 nM.
Take `Cc1cc2c(NC3CCCC3)nc(-c3ccccc3)nc2[nH]1` [Compound 36, N-cyclopentyl-6-methyl-2-phenyl-7H-pyrrolo[2,3-d]pyrimidin-4-amine]: the IC50 was 100 to 1000 nM at IDH2/R140Q [1], > 5000 nM against IDH2/WT and < 100 nM at IDH2/R140Q [2].
For `Cc1cc2c(NC(C)C)nc(-c3ccccc3F)nc2[nH]1` [Compound 25, 2-(2-fluorophenyl)-N-isopropyl-6-methyl-7H-pyrrolo[2,3-d]pyrimidin-4-amine], in that order: 100 to 1000 nM, > 5000 nM and 100 to 1000 nM.
On to `Cc1cc2c(NC3CC3)nc(-c3ccccc3)nc2[nH]1` [Compound 23, N-cyclopropyl-6-methyl-2-phenyl-7H-pyrrolo[2,3-d]pyrimidin-4-amine], for which the IC50 at IDH2/R140Q [1] was 100 to 1000 nM; against IDH2/WT, > 5000 nM; on IDH2/R140Q [2], 100 to 1000 nM.
